The record followed here is US8889712B2, “IAP antagonists” (Bristol-Myers Squibb Company, priority 2012, dated 2014).

For test [1], the target named is T1, XIAP BIR2-3 (Homo sapiens, UniProt P98170, C202A/C213G).
T1 construct: His-BIR2-3 (125-356, C202A/C213G, XIAP)
The test can be described thus: XIAP-BIR2-3 dimeric SMAC Peptide Homogeneous Time Resolved Fluorescence (HTRF) Assay. The format is binding. As for the experimental part: B. […] Assays were performed in black, flat-bottom, 384-well plates. […] Compounds were dissolved at 3 mM in dimethylsulfoxide (DMSO) and evaluated at eleven serially diluted concentrations. IC50 and Ki values were derived by non-linear regression analysis.
On the technique in general: TR-FRET usually uses a lanthanide donor and a delayed reading to cut background.

For test [2], the target named is T2, XIAP BIR3 (Homo sapiens, UniProt P98170).
T2 construct: His-BIR3 (241-356, XIAP)
Briefly: XIAP-BIR3/SMAC Homogeneous Time Resolved Fluorescence (HTRF) Assay. The class given is binding. The procedure, abridged:
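Competition HTRF between XIAP-BIR3 and SMAC; reaction 60 min at room temperature, then anti-6×His-terbium Fab detection for a further 30 min.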

[3] abbreviates: 0.5 nM N-His-BIR2-3 (125-356, C202A/C213G, XIAP), 20 nM fluorescein labeled dimeric SMAC peptide, HTRF signal, read-out: XIAP BIR2-3 IC50.
Where [4] appears, read: 1 nM N-His-BIR3 (241-356, XIAP), 5 nM fluorescein labeled SMAC peptide, HTRF signal, read-out: XIAP BIR3 IC50.

Each structure is given as a SMILES string. Where two headings read alike, the source gives them in different places.

For orientation: IC50 means the midpoint of a concentration-inhibition curve.

T2 sequence (P98170 241-356): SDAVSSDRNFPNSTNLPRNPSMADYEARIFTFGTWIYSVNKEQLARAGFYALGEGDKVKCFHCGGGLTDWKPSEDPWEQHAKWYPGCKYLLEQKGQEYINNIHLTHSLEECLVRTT
T1 sequence (P98170 125-356 C202A/C213G): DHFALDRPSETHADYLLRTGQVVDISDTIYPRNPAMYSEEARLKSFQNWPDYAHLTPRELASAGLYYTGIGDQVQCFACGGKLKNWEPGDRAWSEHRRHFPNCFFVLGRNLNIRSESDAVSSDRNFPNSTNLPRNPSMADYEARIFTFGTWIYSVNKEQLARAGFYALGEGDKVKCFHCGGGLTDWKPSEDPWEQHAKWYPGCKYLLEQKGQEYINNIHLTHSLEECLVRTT

Turning to `CN[C@@H](C)C(=O)N[C@H](C(=O)N1Cc2ccc(C(=O)N[C@H]3C[C@@H](C(=O)N[C@@H]4CCCc5ccccc54)N(C(=O)[C@@H](NC(=O)[C@H](C)NC)C(C)(C)C)C3)cc2C[C@H]1C(=O)N[C@@H]1CCCc2ccccc21)C(C)(C)C` [Example 25, (S)-2-((S)-3,3-Dimethyl-2-((S)-2-(methylamino)propanamido)butanoyl)-N6-((3S,5S)-1-((S)-3,3-dimethyl-2-((S)-2-(methylamino)propanamido)butanoyl)-5-(((R)-1,2,3,4-tetrahydronaphthalen-1-yl)carbamoyl)pyrrolidin-3-yl)-N^3—((R)-1,2,3,4-tetrahydronaphthalen-1-yl)-1,2,3,4-tetrahydroisoquinoline-3,6-dicarboxamide], the IC50 amounted to 3 nM in test [1] (setting [3]) and 4 nM in test [2] (setting [4]).

As for `CN[C@@H](C)C(=O)N[C@H](C(=O)N1Cc2ccc(C(=O)N[C@H]3C[C@@H](C(=O)N[C@@H]4CCCc5ccccc54)N(C(=O)[C@@H](NC(=O)[C@H](C)NC)C(C)(C)C)C3)cc2C[C@@H]1C(=O)N[C@@H]1CCCc2ccccc21)C(C)(C)C` [Example 26, (R)-2-((S)-3,3-Dimethyl-2-((S)-2-(methylamino)propanamido)butanoyl)-N6-((3S,5S)-1-((S)-3,3-dimethyl-2-((S)-2-(methylamino)propanamido)butanoyl)-5-(((R)-1,2,3,4-tetrahydronaphthalen-1-yl)carbamoyl)pyrrolidin-3-yl)-N^3—((R)-1,2,3,4-tetrahydronaphthalen-1-yl)-1,2,3,4-tetrahydroisoquinoline-3,6-dicarboxamide], the results for the IC50 in test [1] (setting [3]) and in test [2] (setting [4]) were 196 nM and 11 nM, respectively.

Turning to `CN[C@@H](C)C(=O)N[C@H](C(=O)N1Cc2cc(NC(=O)[C@H]3C[C@@H](C(=O)N[C@@H]4CCCc5ccccc54)N(C(=O)[C@@H](NC(=O)[C@H](C)NC)C(C)(C)C)C3)ccc2C[C@H]1C(=O)N[C@@H]1CCCc2ccccc21)C(C)(C)C` [Example 27, (2S,4S)-1-((S)-3,3-Dimethyl-2-((S)-2-(methylamino)propanamido)butanoyl)-N^4—((S)-2-((S)-3,3-dimethyl-2-((S)-2-(methylamino)propanamido)butanoyl)-3-(((R)-1,2,3,4-tetrahydronaphthalen-1-yl)carbamoyl)-1,2,3,4-tetrahydroisoquinolin-7-yl)-N^2—((R)-1,2,3,4-tetrahydronaphthalen-1-yl)pyrrolidine-2,4-dicarboxamide], the IC50 in test [1] was 1 nM; in test [2], 5 nM.

With `CN[C@@H](C)C(=O)N[C@H](C(=O)N1C[C@@H](c2ccc3c(c2)CN(C(=O)[C@@H](NC(=O)[C@H](C)NC)C(C)(C)SCCO)[C@H](C(=O)N[C@@H]2CCCc4ccccc42)C3)C[C@H]1C(=O)N[C@@H]1CCCc2ccccc21)C(C)(C)C` [Example 28, (S)-7-((3R,5S)-1-((S)-3,3-Dimethyl-2-((S)-2-(methylamino)propanamido)butanoyl)-5-(((R)-1,2,3,4-tetrahydronaphthalen-1-yl)carbamoyl)pyrrolidin-3-yl)-2-((R)-3-((2-hydroxyethyl)thio)-3-methyl-2-((S)-2-(methylamino)propanamido)butanoyl)-N—((R)-1,2,3,4-tetrahydronaphthalen-1-yl)-1,2,3,4-tetrahydroisoquinoline-3-carboxamide], the values for the IC50 in test [1] (setting [3]) and in test [2] (setting [4]) were 2.2 nM and 5.1 nM, respectively.
